Data reported in US6693125B2 (CombinatoRx Incorporated, priority 2001, dated 2004).

What was measured:
[1] = tested on: A549 lung adenocarcinoma cells; experiment: A549 bromodeoxyuridine (BrdU) cytoblot antiproliferative assay of compound dilution matrix; format: cell-based
Description: An 8× stock solution (128 μM) of each individual compound was made in Dulbecco's Modified Eagle Medium (DMEM) (Gibco 11995-040) containing 10% fetal bovine serum (FBS), […] L-glutamine, and 1% antibiotic/antimycotic solution. From this a 2-fold dilution series was made in DMEM. […] This compound mixture plate provided 4× concentrations of each compound that are transferred to assay plates.
The compound dilution matrix was assayed using the A549 bromodeoxyuri dine (BrdU) cytoblot method. […] Fifteen microliters of the 4× compound mixture matrix was added to each well of the plate containing the cells. The compound mixture matrix was transferred using a 16-channel pipettor (Finnpipette). In addition, control wells with paclitaxel (final concentration 4.6 μM), podophyllotoxin (9.6 μM), and quinacrine (8.5 μM) were added to each plate. Each experiment was conducted in triplicate plates.
After incubation for 48 hours at 37° C., BrdU was added to each well at a concentration of 10 μM. After 16 hours, the media was aspirated and the cells were fixed by the addition of 70% ethanol and phosphate-buffered saline (PBS) at room temperature for 1 hour. The fixative was aspirated and 2N HCl with Tween 20 (polyoxyethylene sorbitan monolaurate) was added to each well and the plates were incubated for 20 minutes at room temperature. The HCl was neutralized with a solution of 2N NaOH and the cells were washed twice with Hank's Balanced Salt Solution (HBSS) and once with PBS containing 0.5% bovine serum albumin (BSA) and 0.1% Tween 20. The wash solution was removed and mouse anti-BrdU primary antibody (PharMingen #555627) was diluted 1:1000 in PBS containing BSA, Tween 20, and secondary antibody at a dilution of 1:2000 (Amersham #NA931). The secondary antibody recognizes the mouse antibody and is conjugated to the enzyme horseradish peroxidase (HRP). After one hour of incubation, the antibody solution was removed and the cells washed once with PBS. After the PBS wash, the HRP substrate (which contains luminol, hydrogen peroxide, and an enhancer such as para-iodophenol) was added to each well. The plates were read using an LJL Analyst. All aspirations as well as the washes with PBS and HBSS were performed using a TECAN™ Power Washer 384. The amount of light output from each well indicates the amount of DNA synthesis that occurred in that well. Decreased light indicates antiproliferative action of the compounds.
Antiproliferative ratios were also calculated for paclitaxel, podophyllotoxin, and quinacrine and used for comparison.
The assays were performed as described in Example 2, above.

[2] = mice, single intraperitoneal injection 10 mg/kg; cited from earlier work
[3] = tested on: nocodozole-resistant NocR and Podrii6 cell lines; details: Gupta, Mol. Pharmacol. 30:142-148, 1986; cited from earlier work
[4] = cited from earlier work
[5] = Homo sapiens, A549, read-out: inhibition of growth

CCCSc1ccc2[nH]c(NC(=O)OC)nc2c1 [Albendazole, albendazole]
antiproliferative ratio ([1]; albendazole 0.03 μM + pentamidine isethionate 0 μM): 1.3
antiproliferative ratio ([1]; albendazole 0.06 μM + pentamidine isethionate 0 μM): 0.9
antiproliferative ratio ([1]; albendazole 0.13 μM + pentamidine isethionate 0 μM): 1.2
antiproliferative ratio ([1]; albendazole 0.25 μM + pentamidine isethionate 0 μM): 1.3
antiproliferative ratio ([1]; albendazole 0.5 μM + pentamidine isethionate 0 μM): 1.2
antiproliferative ratio ([1]; albendazole 1 μM + pentamidine isethionate 0 μM): 1.4
antiproliferative ratio ([1]; albendazole 2 μM + pentamidine isethionate 0 μM): 2.5
antiproliferative ratio ([1]; albendazole 4 μM + pentamidine isethionate 0 μM): 2.4
antiproliferative ratio ([1]; albendazole 4 μM + pentamidine isethionate 0 μM, listed as albendazole): increased no further
antiproliferative ratio ([1]; albendazole 8 μM + pentamidine isethionate 0 μM): 3.1
inhibition of growth ([1]; albendazole alone, two micromolar): 60%

CCCOc1ccc2nc(NC(=O)OC)[nH]c2c1 [Oxibendazole, oxibendazole]
antiproliferative ratio ([1]; oxibendazole 0.015 μM + pentamidine isethionate 0 μM): 1.0
antiproliferative ratio ([1]; oxibendazole 0.03 μM + pentamidine isethionate 0 μM): 1.1
antiproliferative ratio ([1]; oxibendazole 0.06 μM + pentamidine isethionate 0 μM): 1.0
antiproliferative ratio ([1]; oxibendazole 0.13 μM + pentamidine isethionate 0 μM): 1.1
antiproliferative ratio ([1]; oxibendazole 0.25 μM + pentamidine isethionate 0 μM): 1.0
antiproliferative ratio ([1]; oxibendazole 0.5 μM + pentamidine isethionate 0 μM): 1.6
antiproliferative ratio ([1]; oxibendazole 1 μM + pentamidine isethionate 0 μM): 2.9
antiproliferative ratio ([1]; oxibendazole 2 μM + pentamidine isethionate 0 μM): 3.2
antiproliferative ratio ([1]; oxibendazole 4 μM + pentamidine isethionate 0 μM): 3.6

CC(=O)O[C@H]1C(=O)[C@@]2(C)[C@H]([C@H](OC(=O)c3ccccc3)[C@]3(O)C[C@H](OC(=O)[C@H](O)[C@@H](NC(=O)c4ccccc4)c4ccccc4)C(C)=C1C3(C)C)[C@]1(OC(C)=O)CO[C@@H]1C[C@@H]2O [paclitaxel]
antiproliferative ratio ([1]; control wells, paclitaxel final concentration 4.6 μM): 4.0

CCC[S+]([O-])c1ccc2[nH]c(NC(=O)OC)nc2c1 (stereo not shown) [Albendazole Sulfoxide, albendazole sulfoxide]
antiproliferative ratio ([1]; albendazole sulfoxide 0.5 μM + pentamidine isethionate 0 μM): 1.2
antiproliferative ratio ([1]; albendazole sulfoxide 1 μM + pentamidine isethionate 0 μM): 1.1
antiproliferative ratio ([1]; albendazole sulfoxide 2 μM + pentamidine isethionate 0 μM): 1.2
antiproliferative ratio ([1]; albendazole sulfoxide 4 μM + pentamidine isethionate 0 μM): 1.4
antiproliferative ratio ([1]; albendazole sulfoxide 8 μM + pentamidine isethionate 0 μM): 1.4

N=C(N)c1ccc(OCCCCCOc2ccc(C(=N)N)cc2)cc1 [pentamidine]
tissue distribution (concentration ranking) [2]: The concentration in the kidneys was the highest, followed by that in the liver

c1ccc2[nH]c(-c3cscn3)nc2c1 [Thiabendazole, thiabendazole]
antiproliferative ratio ([1]; thiabendazole 0.25 μM + pentamidine isethionate 0 μM): 1.2
antiproliferative ratio ([1]; thiabendazole 0.5 μM + pentamidine isethionate 0 μM): 1.2
antiproliferative ratio ([1]; thiabendazole 1 μM + pentamidine isethionate 0 μM): 1.2
antiproliferative ratio ([1]; thiabendazole 2 μM + pentamidine isethionate 0 μM): 1.2
antiproliferative ratio ([1]; thiabendazole 4 μM + pentamidine isethionate 0 μM): 1.2
cross-resistance of nocodozole-resistant cell lines [3]: lack of cross-resistance

COC(=O)Nc1nc2ccc(C(=O)c3ccccc3)cc2[nH]1 [Mebendazole, mebendazole]
antiproliferative ratio ([1]; mebendazole 0.015 μM + pentamidine isethionate 0 μM): 1.0
antiproliferative ratio ([1]; mebendazole 0.03 μM + pentamidine isethionate 0 μM): 1.4
antiproliferative ratio ([1]; mebendazole 0.06 μM + pentamidine isethionate 0 μM): 1.0
antiproliferative ratio ([1]; mebendazole 0.13 μM + pentamidine isethionate 0 μM): 1.5
antiproliferative ratio ([1]; mebendazole 0.25 μM + pentamidine isethionate 0 μM): 1.5
antiproliferative ratio ([1]; mebendazole 0.5 μM + pentamidine isethionate 0 μM): 2.8
antiproliferative ratio ([1]; mebendazole 1 μM + pentamidine isethionate 0 μM): 3.4
antiproliferative ratio ([1]; mebendazole 2 μM + pentamidine isethionate 0 μM): 5.0
antiproliferative ratio ([1]; mebendazole 4 μM + pentamidine isethionate 0 μM): 4.4

N=C(N)c1ccc(OCCCCCOc2ccc(C(=N)N)cc2)cc1 [Pentamidine Isethionate, 4,4′-diamidino-diphenoxypentane di(β-hydroxyethanesulfonate)]
inhibition at 2 µM [1, 5]: 47%
inhibition at 4 µM [1, 5]: 55%
solubility in ether, acetone, and chloroform [4]: insoluble
solubility in water and glycerin [4]: soluble
